Measurements published in patent publication US6933396B2, “Process to prepare psorospermin” (Cylene Pharmaceuticals, priority 2002, dated 2005).

Columns and labels:
[1] = Blood plasma levels (pharmacokinetics) after i.v. injection in rats; format: in vivo, Sprague Dawley rats; conditions: for blood plasma levels of parent compound: over 24 h
Experimental: Blood plasma levels of psorospermin over 24 h after a 5 mg/Kg injection i.v. in Sprague Dawley rats were measured. Blood plasma levels of 5-methoxy-psorospermin over 24 h after a 5 mg/Kg injection i.v. in Sprague Dawley rats were measured.

[2] = system: various tumor cell lines; assay: MTS cytotoxicity / cell viability assays with various tumor cell lines; format: cell-based
Source text: FIG. 1 illustrates a comparison of (R,R)-psorospermin with (R,R)-5-methoxy-psorospermin, (R,S)-5-methoxy-psorospermin, (S,R)-5-methoxy-psorospermin and (S,S)-5-methoxy-psorospermin in cell viability assays with various tumor cell lines.
MTS cytotoxicity data was collected for a comparison of (R,R)-psorospermin with (R,R)-5-methoxy-psorospermin, (R,S)-5-methoxy-psorospermin, (S,R)-5-methoxy-psorospermin and (S,S)-5-methoxy-psorospermin in cell viability assays with various tumor cell lines, the results of which are shown in FIG. 1.

[3] = 5 mg/Kg injection i.v., Sprague Dawley rats

| SMILES | blood plasma levels of parent compound [1, 3] | blood plasma levels of parent compound ([1]; 5 mg/Kg injection i.v., Sprague Dawley rats, listed as natural product) | time for which a therapeutic dose is exhibited in rodents ([1]; 5 mg/Kg injection i.v., Sprague Dawley rats, FIG. 3) | systemic presence ([1]; in comparison with 2′R,3′R psorospermin) | activity relative to stereoisomeric counterparts ([2]; compared with (2R′, 3S′) or (2S′, 3S′) counterparts) | antitumor activity in a variety of cell lines ([2]; variety of cell lines including those of solid tumors and lymphomas, compared with natural product psorospermin) |
| --- | --- | --- | --- | --- | --- | --- |
| COc1cc2c(c3oc4c(O)cccc4c(=O)c13)C[C@H]([C@@]1(C)CO1)O2 [psorospermin, (2′R,3′R) Psorospermin] | Little parent compound can be detected within the first 24 h after dosing | could be barely detected at any time point |  |  |  |  |
| COc1cccc2c(=O)c3c(OC)cc4c(c3oc12)C[C@H]([C@@]1(C)CO1)O4 [(R,R)-5-Methoxypsorospermin, (2′R,3′R) 5-Methoxy Psorospermin] | prolonged measurable quantities of the parent with a good half life |  | exceeds two hours | prolonged systemic presence in comparison with 2′R,3′R psorospermin | more active than their (2R′, 3S′) or (2S′, 3S′) counterparts | comparable antitumor activity to that of the natural product psorospermin |
